Patent publication US12503438B2, “Compounds for the treatment of kinase-dependent disorders” (Exelixis, Inc., priority 2019, dated 2025)

Experiments:
[1] = target: T1, Mer (Homo sapiens, UniProt Q12866); test: Mer autophosphorylation ELISA in transient transfected 293A cells; type: cell-based; conditions: cellular activity; MERTK-transfected 293A cells, phospho-Mer ELISA
T1 construct: host or cells: 293A cells (Thermo Fisher #R70507)
T1 sequence (Q12866 21-999): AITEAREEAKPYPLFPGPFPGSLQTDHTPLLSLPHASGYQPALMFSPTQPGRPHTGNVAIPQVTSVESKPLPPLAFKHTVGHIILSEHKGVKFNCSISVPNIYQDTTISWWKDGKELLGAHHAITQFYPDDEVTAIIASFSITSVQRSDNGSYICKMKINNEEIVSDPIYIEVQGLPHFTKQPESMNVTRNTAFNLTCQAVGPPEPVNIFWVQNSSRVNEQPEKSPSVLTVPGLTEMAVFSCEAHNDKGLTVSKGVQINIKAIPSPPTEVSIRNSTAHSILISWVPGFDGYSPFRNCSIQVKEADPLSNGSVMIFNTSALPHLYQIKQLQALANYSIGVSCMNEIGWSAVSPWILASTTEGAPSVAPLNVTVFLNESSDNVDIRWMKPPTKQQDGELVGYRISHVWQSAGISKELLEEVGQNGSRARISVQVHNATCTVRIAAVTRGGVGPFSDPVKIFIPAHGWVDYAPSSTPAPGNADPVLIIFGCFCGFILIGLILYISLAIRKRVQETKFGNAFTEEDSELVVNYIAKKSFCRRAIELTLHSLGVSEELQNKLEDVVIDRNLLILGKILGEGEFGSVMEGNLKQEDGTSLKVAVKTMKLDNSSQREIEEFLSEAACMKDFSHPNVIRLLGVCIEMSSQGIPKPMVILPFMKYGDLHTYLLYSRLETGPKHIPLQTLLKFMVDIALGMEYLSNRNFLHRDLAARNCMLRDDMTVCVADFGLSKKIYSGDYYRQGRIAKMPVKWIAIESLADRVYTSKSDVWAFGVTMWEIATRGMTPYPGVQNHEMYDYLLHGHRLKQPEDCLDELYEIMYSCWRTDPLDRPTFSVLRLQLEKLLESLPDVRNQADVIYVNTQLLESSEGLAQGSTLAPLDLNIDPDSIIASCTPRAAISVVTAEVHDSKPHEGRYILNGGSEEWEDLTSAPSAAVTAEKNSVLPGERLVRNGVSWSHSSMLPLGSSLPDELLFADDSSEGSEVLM
Procedure, shortened: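 293A cells transiently transfected with human MERTK DNA, then treated 1 h with 8-point compound dilutions in serum-free medium (0.3% DMSO). Phospho-Mer in lysates quantified by sandwich ELISA against phospho-Mer standard; normalised to DMSO (100%) and reference inhibitor (0%), IC50 from 4-parameter logistic fit.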

[2] = target: T2, Human Mer (Homo sapiens, UniProt Q12866); test: Human Mer kinase assay (33P-phosphoryl transfer radiometric, KinaseProfiler); conditions: biochemical activity; 10 μM ATP
T2 construct: Human Mer (residues R557-E882 with H628Q and R794A, 0.7 nM); purchased Eurofins Pharma Discovery Services UK Limited (KinaseProfiler service)
T2 sequence (Q12866 557-882 limits assumed): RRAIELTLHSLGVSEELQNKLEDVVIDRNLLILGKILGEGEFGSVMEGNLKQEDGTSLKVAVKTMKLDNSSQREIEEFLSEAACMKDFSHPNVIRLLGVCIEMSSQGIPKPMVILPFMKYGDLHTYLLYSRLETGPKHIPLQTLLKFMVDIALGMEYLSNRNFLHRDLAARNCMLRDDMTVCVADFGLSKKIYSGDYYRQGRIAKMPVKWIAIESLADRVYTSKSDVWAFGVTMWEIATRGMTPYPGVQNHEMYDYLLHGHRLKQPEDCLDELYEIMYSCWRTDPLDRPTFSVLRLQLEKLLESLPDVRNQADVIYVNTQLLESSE
Procedure, shortened: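 Radiometric filter-binding assay with human Mer R557-E882 (H628Q/R794A; 0.7 nM) in MOPS pH 7.0. Nine half-log compound concentrations (top 1 μM, 2% DMSO) gave IC50 by variable-slope sigmoidal fit.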

IC50 [1] | IC50 [2] | Compound
0.01 to 0.1 µM | ≤ 0.01 µM | Cc1cc2c(Oc3ccc(NC(=O)C4(C(=O)Nc5ccc(F)cc5)CC4)cc3)ccnc2cc1-c1cnn(C)c1 [Compound 78, 1-N′-(4-Fluorophenyl)-1-N-[4-[6-methyl-7-(1-methylpyrazol-4-yl)quinolin-4-yl]oxyphenyl]cyclopropane-1,1-dicarboxamide]
0.01 to 0.1 µM | ≤ 0.01 µM | O=C(Nc1ccc(F)cc1)C1(C(=O)Nc2ccc(Oc3ccnc4cc(-c5ncc[nH]5)ccc34)cc2)CC1 [Compound 74, 1-N′-(4-Fluorophenyl)-1-N-[4-[7-(1H-imidazol-2-yl)quinolin-4-yl]oxyphenyl]cyclopropane-1,1-dicarboxamide]
0.01 to 0.1 µM | ≤ 0.01 µM | O=C(Nc1ccc(F)cc1)C1(C(=O)Nc2ccc(Oc3ccnc4cc(-c5cncnc5)ccc34)cc2)CC1 [Compound 27, 1-N′-(4-Fluorophenyl)-1-N-[4-(7-pyrimidin-5-ylquinolin-4-yl)oxyphenyl]cyclopropane-1,1-dicarboxamide]
≤ 0.01 µM | ≤ 0.01 µM | O=C(Nc1ccc(F)cc1)C1(C(=O)Nc2ccc(Oc3ccnc4cc(-c5cnn(CCO)c5)ccc34)cc2)CC1 [Compound 18, 1-N′-(4-Fluorophenyl)-1-N-[4-[7-[1-(2-hydroxyethyl)pyrazol-4-yl]quinolin-4-yl]oxyphenyl]cyclopropane-1,1-dicarboxamide]
≤ 0.01 µM | ≤ 0.01 µM | CCn1cc(-c2ccc3c(Oc4ccc(NC(=O)C5(C(=O)Nc6ccc(F)cc6)CC5)cc4)ccnc3c2)cn1 [Compound 20, 1-N-[4-[7-(1-Ethylpyrazol-4-yl)quinolin-4-yl]oxyphenyl]-1-N′-(4-fluorophenyl)cyclopropane-1,1-dicarboxamide]
≤ 0.01 µM | ≤ 0.01 µM | O=C(Nc1ccc(F)cc1)C1(C(=O)Nc2ccc(Oc3ccnc4cc(-c5cnn(CCN6CCOCC6)c5)ccc34)cc2)CC1 [Compound 19, 1-N′-(4-Fluorophenyl)-1-N-[4-[7-[1-(2-morpholin-4-ylethyl)pyrazol-4-yl]quinolin-4-yl]oxyphenyl]cyclopropane-1,1-dicarboxamide]
0.01 to 0.1 µM | ≤ 0.01 µM | CS(=O)(=O)n1cc(-c2ccc3c(Oc4ccc(NC(=O)C5(C(=O)Nc6ccc(F)cc6)CC5)cc4)ccnc3c2)cn1 [Compound 79, 1-N′-(4-Fluorophenyl)-1-N-[4-[7-(1-methylsulfonylpyrazol-4-yl)quinolin-4-yl]oxyphenyl]cyclopropane-1,1-dicarboxamide]
